Where a name gives a salt, the structure may show the parent alone.
Experiment: SKIN-CAD simulation of ketotifen fumarate concentration profile in conjunctiva
Design: species or system rabbit
Details: simulation parameter
From the text: The above data were fed into SKIN-CAD (Biocom Systems, Inc., Fukuoka, Japan), a software for analysis of skin permeation of drugs, together with the parameters for hairless mouse skin permeation and parameters for rabbit tear fluid kinetics, to simulate a ketotifen fumarate concentration profile in rabbit's conjunctiva.
According to references, the rate of uptake of absorbed drugs by the subvascular tissues in normal capillary vessels is around 3-5% (K. Tojo, Mathematical models of transdermal and topical drug delivery, 2nd edition, Biocom Systems, Fkuoka, Japan, 2005), and the above transfer rate of 3% (i.e., the rate of uptake into the tear fluid) almost agrees with this. Based on this rate of uptake (3%), the profile of drug concentration in the conjunctiva was simulated again, this time on the assumption that the solid pharmaceutical preparation was rubbed on the skin only once, not ten times, by replacing the parameter for drug thickness in SKIN-CAD with 1/10 of the value in the above test, i.e., with 0.005 cm.
As to the concentration of the drug in the conjunctiva, the results of the above test where the solid pharmaceutical preparation was applied (Table 10, 10 times application) and a graph produced by SKIN-CAD in agreement with the results, the data after the above topical instillation (Table 13), and the result of the simulation by SKIN-CAD where the solid pharmaceutical preparation was rubbed only once (1 time application) are shown together in FIG. 9.

[1] = rabbit tear fluid pharmacokinetics

Absorption Rate Constant into Blood: 0.04 s⁻¹
Device/Skin Partition Coefficient (device design): 5.80 × 10^−2
Diffusion Coefficient in Device (device design): 1.97 × 10^−9 cm^2/sec
Diffusion Coefficient in Stratum Corneum (hairless mouse skin permeation): 1.12 × 10^−11 cm^2/sec
Elimination Rate Constant, K10 [1]: 0.00385 s⁻¹
Volume of Distribution, V1 [1]: 0.008 mL
Structure (SMILES): CN1CCC(=C2c3ccccc3CC(=O)c3sccc32)CC1 [ketotifen fumarate]
Diffusion Coefficient in Viable Skin (hairless mouse skin permeation): 3.75 × 10^−7 cm^2/sec
Stratum Corneum/Viable Skin Partition Coefficient (hairless mouse skin permeation): 2.47 × 10^2
